Our source for the IC50 values is US20230406885A1, “CYCLIC PEPTIDES FOR TRAPPING INTERLEUKIN-1 BETA” (MERCK SHARP & DOHME LLC, priority 2022, published 2023).

*1 amine or outer side, *2 acyl side, *3 side chain or, on linkers, in order; H or OH if unused. Where a SMILES comes first, the peptide text is derived from it. [ ]: non-standard residue; d: D form. Trp(4-Cl)(βS-Me) = C[C@@H](c1c[nH]c2cccc(Cl)c12)[C@H](N)C(=O)O; Bip(4'-COOH) = N[C@@H](Cc1ccc(-c2ccc(C(=O)O)cc2)cc1)C(=O)O; 1Nal(3S-Me) = C[C@@H](c1cccc2ccccc12)[C@H](N)C(=O)O; X8 = O=C([C@H](CCc1cccc(C(F)(F)F)c1)N[*:1])[*:2]; Phe(4-COOH) = N[C@@H](Cc1ccc(C(=O)O)cc1)C(=O)O; X10 = O=C([C@H](CC1CCC(F)(F)CC1)N[*:1])[*:2]; h3Pal(5-CN) = N#Cc1cncc(CC[C@H](N)C(=O)O)c1; Phe(4-NH2) = Nc1ccc(C[C@H](N)C(=O)O)cc1; Pro(4R-NH2) = N[C@H]1CN[C@H](C(=O)O)C1; 1Nal = N[C@@H](Cc1cccc2ccccc12)C(=O)O; AEF = NCCOc1ccc(C[C@H](N)C(=O)O)cc1; hTyr = N[C@@H](CCc1ccc(O)cc1)C(=O)O; 4Pal = N[C@@H](Cc1ccncc1)C(=O)O; dDab = NCC[C@@H](N)C(=O)O; Orn = NCCC[C@H](N)C(=O)O; dNMeA = CN[C@H](C)C(=O)O; Dab = NCC[C@H](N)C(=O)O; Nva = CCC[C@H](N)C(=O)O; Dap = NC[C@H](N)C(=O)O; Aib = CC(C)(N)C(=O)O

This assay deals with T1, Recombinant human IL-1β (Homo sapiens, UniProt P01584).
T1 construct: purchased BioLegend 579404
T1 sequence (P01584 117-269): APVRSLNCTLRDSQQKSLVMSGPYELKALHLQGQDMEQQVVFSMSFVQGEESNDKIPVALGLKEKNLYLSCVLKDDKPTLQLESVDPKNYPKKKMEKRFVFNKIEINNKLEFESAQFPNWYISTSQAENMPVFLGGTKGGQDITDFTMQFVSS
As to the kind of experiment: IL-6 assay in MRC5 cells: inhibition of IL-1β induced IL-6 secretion (AlphaLISA). The assay is classed as cell-based. The following applies: inhibition of IL-1β induced IL-6 secretion in MRC5 cells; read-out: MRC5 IC50. A digest of the protocol:
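IL-1β at 2×EC80 in seeding medium (EMEM, 0.025% BSA) preincubated 1 h at ambient temperature with compound, then 3000 MRC5 cells/well added and incubated overnight at 37 °C, 5% CO2. IL-6 in conditioned medium quantified by AlphaLISA; IC50 from 4-parameter logistic fit.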

A word on the IC50: it is the concentration at which inhibition is half-maximal. As to `CC(=O)NCCOc1ccc(C[C@@H]2NC(=O)[C@H](CCc3ccc(O)cc3)NC(=O)[C@@H](CCN)NC(=O)[C@H](CC(C)C)NC(=O)[C@H](Cc3c[nH]c4ccccc34)NC(=O)[C@H](Cc3ccc(-c4ccc(C(=O)O)cc4)cc3)NC(=O)CNC(=O)[C@@H](C)N(C)C(=O)[C@H](CC(=O)O)NC(=O)[C@H]([C@@H](C)c3cccc4ccccc34)NC(=O)[C@@H]3C[C@@H](N)CN3C(=O)CNC(=O)[C@H](Cc3ccc(C(=O)O)cc3)NC(=O)[C@H](Cc3c[nH]c4ccccc34)NC2=O)cc1` [Example 126] (cyclo([AEF](Ac)W[Phe(4-COOH)]G[Pro(4R-NH2)][1Nal(3S-Me)]D[dNMeA]G[Bip(4'-COOH)]WL[dDab][hTyr])), the IC50 stood at 0.37 nM. As to `CC(=O)NCCOc1ccc(C[C@@H]2NC(=O)[C@H](CCc3ccc(O)cc3)NC(=O)C(C)(C)NC(=O)[C@H](CCCN)NC(=O)[C@H](Cc3c[nH]c4ccccc34)NC(=O)[C@H](Cc3ccc(-c4ccc(C(=O)O)cc4)cc3)NC(=O)CNC(=O)[C@@H](C)N(C)C(=O)[C@H](CC(=O)O)NC(=O)[C@H]([C@@H](C)c3cccc4ccccc34)NC(=O)[C@@H]3C[C@@H](N)CN3C(=O)CNC(=O)[C@H](Cc3ccc(C(=O)O)cc3)NC(=O)[C@H](Cc3c[nH]c4ccccc34)NC2=O)cc1` [Example 127] (cyclo([AEF](Ac)W[Phe(4-COOH)]G[Pro(4R-NH2)][1Nal(3S-Me)]D[dNMeA]G[Bip(4'-COOH)]W[Orn][Aib][hTyr])), the IC50 amounted to 0.432 nM. Then `CC(=O)NCCOc1ccc(C[C@@H]2NC(=O)[C@H](CCc3ccc(O)cc3)NC(=O)[C@@H](C)NC(=O)[C@H](CO)NC(=O)[C@H](Cc3c[nH]c4ccccc34)NC(=O)[C@H](Cc3ccc(-c4ccc(C(=O)O)cc4)cc3)NC(=O)CNC(=O)[C@@H](C)N(C)C(=O)[C@H](CC(=O)O)NC(=O)[C@H]([C@@H](C)c3cccc4ccccc34)NC(=O)[C@@H]3C[C@@H](N)CN3C(=O)CNC(=O)[C@H](Cc3ccc(C(=O)O)cc3)NC(=O)[C@H](Cc3c[nH]c4ccccc34)NC2=O)cc1` [Example 128] (cyclo([AEF](Ac)W[Phe(4-COOH)]G[Pro(4R-NH2)][1Nal(3S-Me)]D[dNMeA]G[Bip(4'-COOH)]WS[dA][hTyr])), with 0.09 nM. Then `CC(=O)NCCOc1ccc(C[C@@H]2NC(=O)[C@H](CCc3ccc(O)cc3)NC(=O)[C@@H](C)NC(=O)[C@H](CN)NC(=O)[C@H](Cc3c[nH]c4ccccc34)NC(=O)[C@H](Cc3ccc(-c4ccc(C(=O)O)cc4)cc3)NC(=O)CNC(=O)[C@@H](C)N(C)C(=O)[C@H](CC(N)=O)NC(=O)[C@H]([C@@H](C)c3cccc4ccccc34)NC(=O)[C@@H]3C[C@@H](N)CN3C(=O)CNC(=O)[C@H](Cc3ccc(C(=O)O)cc3)NC(=O)[C@H](Cc3c[nH]c4ccccc34)NC2=O)cc1` [Example 129] (cyclo([AEF](Ac)W[Phe(4-COOH)]G[Pro(4R-NH2)][1Nal(3S-Me)]N[dNMeA]G[Bip(4'-COOH)]W[Dap][dA][hTyr])), with 0.0828 nM; and `CC(=O)NCCOc1ccc(C[C@@H]2NC(=O)[C@H](CCc3cncc(C#N)c3)NC(=O)C(C)(C)NC(=O)[C@H](CN)NC(=O)[C@H](Cc3cccc4ccccc34)NC(=O)[C@H](Cc3ccc(-c4ccc(C(=O)O)cc4)cc3)NC(=O)CNC(=O)[C@@H](C)N(C)C(=O)[C@H](CC(=O)O)NC(=O)[C@H]([C@@H](C)c3c[nH]c4cccc(Cl)c34)NC(=O)[C@@H]3C[C@@H](N)CN3C(=O)CNC(=O)[C@H](Cc3ccc(C(=O)O)cc3)NC(=O)[C@H](Cc3c[nH]c4ccccc34)NC2=O)cc1` [Example 130] (cyclo([AEF](Ac)W[Phe(4-COOH)]G[Pro(4R-NH2)][Trp(4-Cl)(βS-Me)]D[dNMeA]G[Bip(4'-COOH)][1Nal][Dap][Aib][h3Pal(5-CN)])), with 0.114 nM; and `CC(=O)NCCOc1ccc(C[C@@H]2NC(=O)[C@H](CCc3ccc(O)cc3)NC(=O)[C@@H](C)NC(=O)[C@H](CC(C)C)NC(=O)[C@H](Cc3cccc4ccccc34)NC(=O)[C@H](Cc3ccc(-c4ccc(C(=O)O)cc4)cc3)NC(=O)CNC(=O)[C@@H](C)N(C)C(=O)[C@H](CC(=O)O)NC(=O)[C@H]([C@@H](C)c3c[nH]c4cccc(Cl)c34)NC(=O)[C@@H]3C[C@@H](N)CN3C(=O)CNC(=O)[C@H](Cc3ccc(C(=O)O)cc3)NC(=O)[C@H](Cc3c[nH]c4ccccc34)NC2=O)cc1` [Example 131] (cyclo([AEF](Ac)W[Phe(4-COOH)]G[Pro(4R-NH2)][Trp(4-Cl)(βS-Me)]D[dNMeA]G[Bip(4'-COOH)][1Nal]L[dA][hTyr])), with 0.0498 nM.

In the case of `CC(=O)NCCOc1ccc(C[C@@H]2NC(=O)CNC(=O)C(C)(C)NC(=O)[C@H](CCCN)NC(=O)[C@H](Cc3cccc4ccccc34)NC(=O)[C@H](Cc3ccc(-c4ccc(C(=O)O)cc4)cc3)NC(=O)CNC(=O)[C@@H](C)N(C)C(=O)[C@H](CC(=O)O)NC(=O)[C@H]([C@@H](C)c3c[nH]c4cccc(Cl)c34)NC(=O)[C@@H]3C[C@@H](N)CN3C(=O)CNC(=O)[C@H](Cc3ccc(C(=O)O)cc3)NC(=O)[C@H](Cc3c[nH]c4ccccc34)NC2=O)cc1` [Example 132] (cyclo([AEF](Ac)W[Phe(4-COOH)]G[Pro(4R-NH2)][Trp(4-Cl)(βS-Me)]D[dNMeA]G[Bip(4'-COOH)][1Nal][Orn][Aib]G)), the IC50 was determined as 0.37 nM. As for `CC(=O)NCCOc1ccc(C[C@@H]2NC(=O)[C@H](Cc3ccc(N)cc3)NC(=O)[C@@H](C)NC(=O)[C@H](CO)NC(=O)[C@H](Cc3cccc4ccccc34)NC(=O)[C@H](Cc3ccc(-c4ccc(C(=O)O)cc4)cc3)NC(=O)CNC(=O)[C@@H](C)N(C)C(=O)[C@H](CC(=O)O)NC(=O)[C@H]([C@@H](C)c3c[nH]c4cccc(Cl)c34)NC(=O)[C@@H]3C[C@@H](N)CN3C(=O)CNC(=O)[C@H](Cc3ccc(C(=O)O)cc3)NC(=O)[C@H](Cc3c[nH]c4ccccc34)NC2=O)cc1` [Example 133] (cyclo([AEF](Ac)W[Phe(4-COOH)]G[Pro(4R-NH2)][Trp(4-Cl)(βS-Me)]D[dNMeA]G[Bip(4'-COOH)][1Nal]S[dA][Phe(4-NH2)])), the IC50 turned out to be 0.766 nM.

`CC(=O)NCCOc1ccc(C[C@@H]2NC(=O)[C@H](CCc3ccc(O)cc3)NC(=O)[C@@H](C)NC(=O)[C@H](CCN)NC(=O)[C@H](Cc3ccncc3)NC(=O)[C@H](Cc3ccc(-c4ccc(C(=O)O)cc4)cc3)NC(=O)CNC(=O)[C@@H](C)N(C)C(=O)[C@H](CC(=O)O)NC(=O)[C@H]([C@@H](C)c3c[nH]c4cccc(Cl)c34)NC(=O)[C@@H]3C[C@@H](N)CN3C(=O)CNC(=O)[C@H](Cc3ccc(C(=O)O)cc3)NC(=O)[C@H](Cc3c[nH]c4ccccc34)NC2=O)cc1` [Example 134] (cyclo([AEF](Ac)W[Phe(4-COOH)]G[Pro(4R-NH2)][Trp(4-Cl)(βS-Me)]D[dNMeA]G[Bip(4'-COOH)][4Pal][Dab][dA][hTyr])): the IC50 was 0.379 nM. Next, `CC(=O)NCCOc1ccc(C[C@@H]2NC(=O)[C@H](CCc3ccc(O)cc3)NC(=O)[C@@H](C)NC(=O)[C@H](CC(C)C)NC(=O)[C@H](Cc3ccncc3)NC(=O)[C@H](Cc3ccc(-c4ccc(C(=O)O)cc4)cc3)NC(=O)CNC(=O)[C@@H](C)N(C)C(=O)[C@H](CC(=O)O)NC(=O)[C@H]([C@@H](C)c3c[nH]c4cccc(Cl)c34)NC(=O)[C@@H]3C[C@@H](N)CN3C(=O)CNC(=O)[C@H](Cc3ccc(C(=O)O)cc3)NC(=O)[C@H](Cc3c[nH]c4ccccc34)NC2=O)cc1` [Example 135] (cyclo([AEF](Ac)W[Phe(4-COOH)]G[Pro(4R-NH2)][Trp(4-Cl)(βS-Me)]D[dNMeA]G[Bip(4'-COOH)][4Pal]L[dA][hTyr])): 0.31 nM; `CCC[C@@H]1NC(=O)[C@H](Cc2ccncc2)NC(=O)[C@H](Cc2ccc(-c3ccc(C(=O)O)cc3)cc2)NC(=O)CNC(=O)[C@@H](C)N(C)C(=O)[C@H](CC(=O)O)NC(=O)[C@H]([C@@H](C)c2c[nH]c3cccc(Cl)c23)NC(=O)[C@@H]2C[C@@H](N)CN2C(=O)CNC(=O)[C@H](Cc2ccc(C(=O)O)cc2)NC(=O)[C@H](Cc2c[nH]c3ccccc23)NC(=O)[C@H](Cc2ccc(OCCNC(C)=O)cc2)NC(=O)[C@H](CC2CCC(F)(F)CC2)NC(=O)[C@@H](C)NC1=O` [Example 136] (cyclo([AEF](Ac)W[Phe(4-COOH)]G[Pro(4R-NH2)][Trp(4-Cl)(βS-Me)]D[dNMeA]G[Bip(4'-COOH)][4Pal][Nva][dA][X10])): 0.396 nM. Then `CC(=O)NCCOc1ccc(C[C@@H]2NC(=O)[C@H](CCc3cccc(C(F)(F)F)c3)NC(=O)[C@@H](C)NC(=O)[C@H](CC(C)C)NC(=O)[C@H](CCCCN)NC(=O)[C@H](Cc3ccc(-c4ccc(C(=O)O)cc4)cc3)NC(=O)CNC(=O)[C@@H](C)N(C)C(=O)[C@H](CC(=O)O)NC(=O)[C@H]([C@@H](C)c3c[nH]c4cccc(Cl)c34)NC(=O)[C@@H]3C[C@@H](N)CN3C(=O)CNC(=O)[C@H](Cc3ccc(C(=O)O)cc3)NC(=O)[C@H](Cc3c[nH]c4ccccc34)NC2=O)cc1` [Example 137] (cyclo([AEF](Ac)W[Phe(4-COOH)]G[Pro(4R-NH2)][Trp(4-Cl)(βS-Me)]D[dNMeA]G[Bip(4'-COOH)]KL[dA][X8])), with 0.0938 nM; and `CC(=O)NCCOc1ccc(C[C@@H]2NC(=O)[C@H](CCc3ccc(O)cc3)NC(=O)[C@@H](C)NC(=O)[C@H](CO)NC(=O)[C@H](CCCCN)NC(=O)[C@H](Cc3ccc(-c4ccc(C(=O)O)cc4)cc3)NC(=O)CNC(=O)[C@@H](C)N(C)C(=O)[C@H](CC(=O)O)NC(=O)[C@H]([C@@H](C)c3c[nH]c4cccc(Cl)c34)NC(=O)[C@@H]3C[C@@H](N)CN3C(=O)CNC(=O)[C@H](Cc3ccc(C(=O)O)cc3)NC(=O)[C@H](Cc3c[nH]c4ccccc34)NC2=O)cc1` [Example 138] (cyclo([AEF](Ac)W[Phe(4-COOH)]G[Pro(4R-NH2)][Trp(4-Cl)(βS-Me)]D[dNMeA]G[Bip(4'-COOH)]KS[dA][hTyr])), with 0.214 nM.
